Assay results as given in paper PMC12066977, “Alkyl Tail Variation on Chalcone‐Based Quaternary Pyridinium Salts as Rule‐of‐Thumb for Antimicrobial Activity” (Archiv Der Pharmazie, 2025).
Values after ≈ are worked out from the molar mass of the structure shown.

Key:
[1] = Cell viability and proliferation assay (WST8/CCK-8); assay type: cell-based; conditions: African green monkey, Vero cells (ATCC CCL-81), 48 h treatment, CCK-8; read-out: CC50 [95% CI] Vero cells
Procedure: Vero cell line (ATCC CCL‐81) was selected as a model system to investigate the overall effect of chalcones on non‐malignant mammalian cells. […] For experiments, cells were seeded into 96‐well plates at 10^4 cells/well and incubated at 37°C for 24 h. Following washes with PBS, the cell monolayer was incubated with 100 µL of medium containing the twofold serial dilutions of the compounds. Both untreated cells and cells incubated with medium containing solvent dilutions were included in each experiment as controls. The cell viability was assessed by a WST8‐based assay according to the manufacturer's instructions (CCK‐8, Cell Counting Kit‐8, Dojindo Molecular Technologies, Rockville, MD, USA). After 48 h of incubation, culture medium was removed from each well, the monolayer was washed with PBS, and 100 µL of fresh medium containing 10 µL of CCK‐8 solution was added. Following a 2 h incubation at 37°C, the OD450nm was read, and data were expressed as the percentage of cell viability relative to the untreated controls. The CC50 was obtained on the corresponding dose–response curves generated as previously reported for IC50 values. Experiments were carried out in triplicate in three biological replicates.

C. albicans ATCC 10231 = experiment: Broth microdilution antimicrobial assay (MIC, IC50); assay type: cell-based; conditions: Candida albicans, 24 h; for IC50: ATCC10231, 50% growth inhibition, read-out: IC50 [95% confidence interval] Candida albicans; for MIC: ATCC10231, broth microdilution, 37°C
Procedure: (§1) Reference strains of Staphylococcus aureus (ATCC 25923), Escherichia coli (ATCC 25922), and Candida albicans (ATCC 10231) were used in this study as microbial models. These strains were purchased from the American Type Culture Collection (ATCC); bacterial cultures were routinely grown on 5% blood agar plate, while fungal cultures on Sabouraud Dextrose Agar (Biolife […]., Milan, Italy). […] In short, microbial inocula were prepared at 0.5 McFarland in PBS and, subsequently, bacterial suspensions were diluted 1:200 in Mueller-Hinton broth (Sigma-Aldrich, St. Louis, MO, USA), while fungal inoculum was diluted 1:20 in RPMI-1640 medium (Gibco®, ThermoFisher Scientific Inc., Waltham, MA, USA), containing glucose 2%, 0.3% levo-glutamine buffered to pH 7.0 with 0.165 M 3-(N-morpholino) propanesulfonic acid (MOPS). A total of 100 μL of these microbial suspensions was introduced into a 96-well microplate and incubated with 100 μL of the compounds, two-fold serially diluted in the range of 100-0.19 μM. Positive controls (microbial suspensions in regular media), negative controls (only compounds), and solvent controls (microbial suspensions incubated with DMSO dilutions) were included in the tests. The plate was incubated at 37°C for 24 h, and subsequently the optical density at 630 nm (OD630nm) was spectrophotometrically measured. Experiments were carried out in triplicate in three biological replicates. […] Statistical analysis was carried out by using GraphPad Prism version 9.4.1 for Windows (GraphPad Software, San Diego, California USA, www.graphpad.com). ^a MIC (Minimum Inhibitory Concentration) were determined in vitro by means of a standardized microdilution assay, in compliance with the Clinical and laboratory Standard Institute (CLSI) guidelines (30). Microbial suspensions were prepared at 0.5 McFarland in PBS, then diluted in the media and transferred in a 96 micro-well plate together with the serially 2-fold dilutions of the compounds. After 24h of incubation at 37°C, microbial growths were evaluated by measuring the Optical Density at 600 nm, then percentage values were obtained as relative to the positive controls (microbial suspensions in regular media).

S. aureus ATCC 25923 = experiment: as above; assay type: cell-based; conditions: Staphylococcus aureus; for IC50: ATCC25923, 50% growth inhibition, 24 h, read-out: IC50 [95% confidence interval] Staphylococcus aureus; for MIC: ATCC25923, 24 h, broth microdilution, 37°C
Procedure: as §1

E. coli ATCC 25922 = experiment: as above; assay type: cell-based; conditions: Escherichia coli, 24 h; for IC50: ATCC25922, 50% growth inhibition, read-out: IC50 [95% confidence interval] Escherichia coli; for MIC: ATCC25922, broth microdilution, 37°C
Procedure: as §1

E. coli = experiment: Colistin association assay; assay type: cell-based, Escherichia coli; conditions: colistin at sub-inhibitory concentration (MIC/8 = 0.027 µM)
Procedure: This is a confirmation of the ability of these new QPySs to also affect Gram‐negative proliferation once they pass through the OM.
The dry powder of the chalcone‐based QPySs was resuspended in dimethylsulfoxide (DMSO) at 20 mM and used as stock solutions. For biological investigations, compounds were used in the range 100–0.78 µM, and the solvent in the corresponding percentage range. The following commercially available antimicrobials and toxic clinical drugs were purchased from Sigma‐Aldrich (St. Louis, MO, USA), dissolved in water, and used as reference controls. Gentamicin and ampicillin were used in the range 107.69–0.82 µM and 143.23–1.12 µM, respectively; the colistin was used at 0.03 µM in association with the chalcone‐based QASs with E. coli. The fluconazole was used in the assays with C. albicans in the range 3.27–0.03 µM. […]
In short, microbial inocula were prepared at 0.5 McFarland in PBS and, subsequently, bacterial suspensions were diluted 1:200 in Mueller–Hinton broth (Sigma‐Aldrich, St. Louis, MO, USA), while fungal inoculum was diluted 1:20 in RPMI‐1640 medium (Gibco®, ThermoFisher Scientific Inc., Waltham, MA, USA), containing glucose 2%, 0.3% levo‐glutamine buffered to pH 7.0 with 0.165 M 3‐(N‐morpholino) propanesulfonic acid (MOPS). […] The plate was incubated at 37°C for 24 h, and subsequently the optical density at 630 nm (OD630nm) was spectrophotometrically measured. […]

[2] = tested on: S. aureus ATCC 25923, E. coli ATCC 25922, C. albicans ATCC 10231; experiment: Broth microdilution antimicrobial assay, statements pooled over the three strains; assay type: cell-based; conditions: stated for S. aureus, E. coli and C. albicans together; read-out: MIC toward the three selected strains
Procedure: The antimicrobial activity of the compounds was assessed by determining the Minimum Inhibitory Concentration (MIC) by a well‐established broth microdilution procedure in microtiter plates and in compliance with the Clinical and Laboratory Standards Institute (CLSI) guidelines.
In short, microbial inocula were prepared at 0.5 McFarland in PBS and, subsequently, bacterial suspensions were diluted 1:200 in Mueller–Hinton broth (Sigma‐Aldrich, St. Louis, MO, USA), while fungal inoculum was diluted 1:20 in RPMI‐1640 medium (Gibco®, ThermoFisher Scientific Inc., Waltham, MA, USA), containing glucose 2%, 0.3% levo‐glutamine buffered to pH 7.0 with 0.165 M 3‐(N‐morpholino) propanesulfonic acid (MOPS). A total of 100 µL of these microbial suspensions was introduced into a 96‐well microplate and incubated with 100 µL of the compounds, two‐fold serially diluted in the range of 100–0.19 µM. Positive controls (microbial suspensions in regular media), negative controls (only compounds), and solvent controls (microbial suspensions incubated with DMSO dilutions) were included in the tests. The plate was incubated at 37°C for 24 h, and subsequently the optical density at 630 nm (OD630nm) was spectrophotometrically measured. Experiments were carried out in triplicate in three biological replicates. […]

[3] = tested on: human red blood cells (hRBCs); experiment: Hemolytic activity assay; assay type: cell-based; conditions: 25 µM, 90 min, 37°C
Procedure: The hemolytic activity of some selected compounds was evaluated as the amount of hemoglobin released by the disruption of human red blood cells (hRBCs). For the experiments, fresh hRBCs were collected by centrifugation at 1500g for 10 min, washed three times with PBS, and resuspended to a final concentration of 4% w/v hRBCs in PBS. Then, 100 µL of hRBCs suspension and an equal volume of the twofold dilutions of the antimicrobial peptides were mixed in a 96‐well plate and incubated for 90 min at 37°C. After centrifugation at 1000g for 5 min, the supernatants were transferred into a clear 96‐well plate, and OD405nm was read. Untreated hRBCs (incubated with PBS) and hRBCs incubated with 1% Triton X‐100 were employed as negative and positive controls, respectively. The hemolysis percentage was calculated as [OD405nm (sample) − OD4_05nm (negative control)]/[OD405nm (positive control) − OD405nm (negative control)] × 100. Minimal hemolytic concentrations (MHCs) were defined as the compound concentration causing 10% hemolysis. Three independent experiments were performed in triplicate.

Compound	IC50 (C. albicans ATCC 10231)	MIC (C. albicans ATCC 10231)	IC50 (S. aureus ATCC 25923)	MIC (S. aureus ATCC 25923)	IC50 (E. coli ATCC 25922)	MIC (E. coli ATCC 25922)	MIC [2]	CC50 at 48 h [1]	MIC Escherichia coli in association with colistin (E. coli)	hemolytic activity [3]
C#CCOc1ccc(C(=O)/C=C/c2ccc[n+](CCCCCCCC)c2)c(OCC#C)c1 [Compound 3, (E)‐3‐{3‐[2,4‐Bis(prop‐2‐yn‐1‐yloxy)phenyl]‐3‐oxoprop‐1‐en‐1‐yl}‐1‐octylpyridin‐1‐ium bromide]	30.5 µM	50 µM	2.65 µM	6.25 µM	11 µM	12.5 µM	–	47 µM	–	–
OC(Cn1cncn1)(Cn1cncn1)c1ccc(F)cc1F [FLC, fluconazole, reference compound]	0.23 µM	0.82 µM (≈ 0.251 µg/mL)	–	–	–	–	–	–	–	–
C#CCOc1ccc(C(=O)/C=C/c2ccc[n+](CCCCCC)c2)c(OCC#C)c1.[Br-] [Compound 2, (E)‐3‐{3‐[2,4‐Bis(prop‐2‐yn‐1‐yloxy)phenyl]‐3‐oxoprop‐1‐en‐1‐yl}‐1‐hexylpyridin‐1‐ium bromide]	68.7 µM	100 µM	34.4 µM	50 µM	–	> 100 µM	–	> 100 µM	50 µM	–
COc1cccc2c1C(=O)c1c(O)c3c(c(O)c1C2=O)C[C@@](O)(C(=O)CO)C[C@@H]3O[C@H]1C[C@H](N)[C@H](O)[C@H](C)O1 [DOX, doxorubicin, reference compound]	–	–	–	–	–	–	–	70.6 µM	–	–
C#CCOc1ccc(C(=O)/C=C/c2ccc[n+](CCCCCCCCCCCCCCCCCC)c2)c(OCC#C)c1 [Compound 8, (E)‐3‐{3‐[2,4‐Bis(prop‐2‐yn‐1‐yloxy)phenyl]‐3‐oxoprop‐1‐en‐1‐yl}‐1‐octadecylpyridin‐1‐ium bromide]	52.5 µM	> 100 µM	14.2 µM	100 µM	–	> 100 µM	–	5.73 µM	–	–

Now from value to compound, other results behind:

IC50 (C. albicans ATCC 10231)	MIC (C. albicans ATCC 10231)	IC50 (S. aureus ATCC 25923)	MIC (S. aureus ATCC 25923)	IC50 (E. coli ATCC 25922)	MIC (E. coli ATCC 25922)	MIC [2]	Compound	CC50 at 48 h [1]	MIC Escherichia coli in association with colistin (E. coli)	hemolytic activity [3]
5.76 µM	6.25 µM	4.21 µM	12.5 µM	–	> 100 µM	–	C#CCOc1ccc(C(=O)/C=C/c2ccc[n+](CCCCCCCCCCCCCCCC)c2)c(OCC#C)c1 [Compound 7, (E)‐3‐{3‐[2,4‐Bis(prop‐2‐yn‐1‐yloxy)phenyl]‐3‐oxoprop‐1‐en‐1‐yl}‐1‐hexadecylpyridin‐1‐ium]	5.38 µM	–	–
95 µM	100 µM	58.3 µM	50 µM	46 µM	50 µM	≥ 50 µM	C#CCOc1ccc(C(=O)/C=C/c2ccc[n+](CCCCCC[n+]3cccc(/C=C/C(=O)c4ccc(OCC#C)cc4OCC#C)c3)c2)c(OCC#C)c1 [Compound 10, 1,1′‐(Hexane‐1,6‐diyl)bis{3‐[(E)‐3‐(2,4‐bis‐prop‐2‐yn‐1‐yloxyphenyl)‐3‐oxoprop‐1‐en‐1‐yl]pyridin‐1‐ium} bromide]	> 100 µM	–	–
1.57 µM	3.12 µM	1.62 µM	3.12 µM	5.88 µM	6.25 µM	–	C#CCOc1ccc(C(=O)/C=C/c2ccc[n+](CCCCCCCCCCCC)c2)c(OCC#C)c1.[Br-] [Compound 5, (E)‐3‐{3‐[2,4‐Bis(prop‐2‐yn‐1‐yloxy)phenyl]‐3‐oxoprop‐1‐en‐1‐yl}‐1‐dodecylpyridin‐1‐ium bromide]	14 µM	–	40.9%
–	–	4 µM	6.54 µM (≈ 3.12 µg/mL)	6.11 µM	13.1 µM (≈ 6.25 µg/mL)	–	CNC(C)C1CCC(N)C(OC2C(N)CC(N)C(OC3OCC(C)(O)C(NC)C3O)C2O)O1 (stereo not shown) [GEN, gentamicin, reference compound]	–	–	–
